Literature values, collected in patent US11667615B2, “Certain (2S)-N-[(1S)-1-cyano-2-phenylethyl]-1,4-oxazepane-2-carboxamides as dipeptidyl peptidase 1 inhibitors” (AstraZeneca AB, priority 2014, dated 2023).

Settings: QWBA studies; concomitant ultra-structural changes by electron microscopy

CC(c1ccc(Cl)c(Cl)c1)N1N=C(N)CC1=O (stereo not shown) [muzolimine]
retention in the aorta: retained selectively in the aorta
